# Like-named read-outs stand apart in the source and are kept apart here.
# How the values were obtained:
# [1] = system: procollagen 1; assay: Assay for collagen synthesis (secreted procollagen 1 immunoassay, fibroblasts); details: actives 0.2 to 20 mM, serum-free medium, 48 hours
# Protocol: Neonatal human dermal fibroblasts were purchased from Clonetics Corp., San Diego, Calif. All materials for cell culture were purchased from Life Technologies, N.Y. Cells were maintained in DMEM with 10% fetal bovine serum and used in passages 5-10. Confluent 96-well plates containing fibroblasts were treated with actives (0.2 to 20 mM) in serum-free medium for 48 hours. […] This was carried out in a BioDot SF apparatus according to the manufacturer's instructions (BioRad Labs, CA) and the blot was developed using a Vectastain Kit (PK6104, Vector Labs, CA) as per the manufacturer's directions. Color intensity was quantitated using an Ultroscan XL densitometer (Pharmacia LKB). Fold increase was calculated as (density of treated)/untreated.
# [2] = system: Normal human epidermal keratinocytes (NHEK); assay: Keratinocyte proliferation (DNA content, fluorometric); type: cell-based; details: for activation at 70 µM: 0.07 mM
# Protocol: Normal human epidermal keratinocytes (NHEK) derived from neonatal foreskin were used for all experiments. Media were purchased from Clonetics Corp., San Diego, Calif. Cell stocks frozen in passage 2 were grown in Keratinocyte Growth Medium (KGM) and passaged when 70-80% confluent. Cells were seeded in 96 well plates (Corning) at a density of 7500 cells/well in KGM. After 24 hours, cells were rinsed and dosed with test compounds in 200 μl of Keratinocyte Basal Medium (KBM). Plates were incubated for three days at 37° C., 5% CO2. Cell proliferation was estimated by assaying for DNA content by a fluorometric method described by Rago et al. (Analytical Biochemistry, 191:31-34, 1990). Medium was removed and cells were rinsed with phosphate buffered saline solution. 100 μl of sterile distilled water was added to each well and plates were frozen at -70° C. for one and a half hours. Plates were thawed for one hour at which time 100 μl of a 20 ug/ml solution of Bisbenzimide H33258 fluorochrome (Calbiochem Corp., La Jolla, Calif.) was added to each well. The fluorochrome was prepared just prior to use in 10 mM Tris, 1 mM EDTA, 4M NaCI, pH 7.4. Plates were read in a Millipore Cytofluor fluorescent plate reader to quantify DNA (excitation 360 nm, emission 460 nm). Percent increase over control was calculated from blank-corrected readings as (treated-untreated)/(untreated)*100. Each data point in the Tables below represents a mean of 5 or 6 replicates.
# The procedure of Example 2 was repeated except that various co-active ingredients were tested for their ability to stimulate keratinocyte proliferation.
# The procedure of Example 2 was repeated to test the effect of combination of an LDH inhibitor with another carboxylic acid on keratinocyte proliferation.
compound,measurement,setting,value
O=C(O)CC(=O)C(=O)O [Oxaloacetate],"Collagen Synthesis, Maximum fold over Control",[1],3.0 fold
same,activation at 2 µM,"[2]; Homo sapiens, NHEK, 72 h, read-out: Keratinocyte Proliferation (% increase over Control), Table 5, Test A, 0.002 mM",11%
same,activation at 20 µM,"[2]; Homo sapiens, NHEK, 72 h, read-out: Keratinocyte Proliferation (% increase over Control), Table 5, Test A, 0.02 mM",15%
same,activation at 200 µM,"[2]; Homo sapiens, NHEK, 72 h, read-out: Keratinocyte Proliferation (% increase over Control), Table 5, Test A, 0.2 mM",22%
same,activation at 2000 µM,"[2]; Homo sapiens, NHEK, 72 h, read-out: Keratinocyte Proliferation (% increase over Control), Table 5, Test A, 2.0 mM",53%
same,activation at 10000 µM,"[2]; Homo sapiens, NHEK, 72 h, read-out: Keratinocyte Proliferation (% increase over Control), Table 5, Test A, 10 mM",110%
same,activation at 20 µM,"[2]; Homo sapiens, NHEK, 72 h, read-out: Keratinocyte Proliferation (% increase over Control), Table 5, Test B, 0.02 mM",30%
same,activation at 200 µM,"[2]; Homo sapiens, NHEK, 72 h, read-out: Keratinocyte Proliferation (% increase over Control), Table 5, Test B, 0.2 mM",20%
same,activation at 2000 µM,"[2]; Homo sapiens, NHEK, 72 h, read-out: Keratinocyte Proliferation (% increase over Control), Table 5, Test B, 2.0 mM",16%
same,activation at 10000 µM,"[2]; Homo sapiens, NHEK, 72 h, read-out: Keratinocyte Proliferation (% increase over Control), Table 5, Test B, 10 mM",70%
same,activation at 20000 µM,"[2]; Homo sapiens, NHEK, 72 h, read-out: Keratinocyte Proliferation (% increase over Control), Table 5, Test B, 20 mM",44%
same,activation at 150 µM,"[2]; Homo sapiens, NHEK, 72 h, read-out: Keratinocyte Proliferation (% increase over Control), Table 5, Test C, 0.15 mM",13%
same,activation at 300 µM,"[2]; Homo sapiens, NHEK, 72 h, read-out: Keratinocyte Proliferation (% increase over Control), Table 5, Test C, 0.3 mM",18%
same,activation at 600 µM,"[2]; Homo sapiens, NHEK, 72 h, read-out: Keratinocyte Proliferation (% increase over Control), Table 5, Test C, 0.6 mM",20%
same,activation at 1250 µM,"[2]; Homo sapiens, NHEK, 72 h, read-out: Keratinocyte Proliferation (% increase over Control), Table 5, Test C, 1.25 mM",18%
same,activation at 2500 µM,"[2]; Homo sapiens, NHEK, 72 h, read-out: Keratinocyte Proliferation (% increase over Control), Table 5, Test C, 2.5 mM",40%
same,activation at 5000 µM,"[2]; Homo sapiens, NHEK, 72 h, read-out: Keratinocyte Proliferation (% increase over Control), Table 5, Test C, 5.0 mM",35%
same,activation at 10000 µM,"[2]; Homo sapiens, NHEK, 72 h, read-out: Keratinocyte Proliferation (% increase over Control), Table 5, Test C, 10 mM",0%
same,activation at 80 µM,"[2]; Homo sapiens, NHEK, 72 h, read-out: Keratinocyte Proliferation (% increase over Control), Table 5, Test D, 0.08 mM",56%
same,activation at 150 µM,"[2]; Homo sapiens, NHEK, 72 h, read-out: Keratinocyte Proliferation (% increase over Control), Table 5, Test D, 0.15 mM",76%
same,activation at 300 µM,"[2]; Homo sapiens, NHEK, 72 h, read-out: Keratinocyte Proliferation (% increase over Control), Table 5, Test D, 0.3 mM",63%
same,activation at 600 µM,"[2]; Homo sapiens, NHEK, 72 h, read-out: Keratinocyte Proliferation (% increase over Control), Table 5, Test D, 0.6 mM",48%
same,activation at 1250 µM,"[2]; Homo sapiens, NHEK, 72 h, read-out: Keratinocyte Proliferation (% increase over Control), Table 5, Test D, 1.25 mM",37%
same,activation at 2500 µM,"[2]; Homo sapiens, NHEK, 72 h, read-out: Keratinocyte Proliferation (% increase over Control), Table 5, Test D, 2.5 mM",37%
same,activation at 5000 µM,"[2]; Homo sapiens, NHEK, 72 h, read-out: Keratinocyte Proliferation (% increase over Control), Table 5, Test D, 5.0 mM",52%
same,activation at 10000 µM,"[2]; Homo sapiens, NHEK, 72 h, read-out: Keratinocyte Proliferation (% increase over Control), Table 5, Test D, 10 mM",52%
O=C(O)CCC(=O)O [Succinate],"Collagen Synthesis, Maximum fold over Control",[1],2.8 fold
same,"Keratinocyte proliferation, % Increase Over Control","[2]; Table 8, single agent alone, 0.156 mM",48%
same,"Keratinocyte proliferation, % Increase Over Control","[2]; Table 8, single agent alone, 0.313 mM",48%
same,"Keratinocyte proliferation, % Increase Over Control","[2]; Table 8, single agent alone, 0.625 mM",39%
same,"Keratinocyte proliferation, % Increase Over Control","[2]; Table 8, single agent alone, 1.25 mM",51%
same,"Keratinocyte proliferation, % Increase Over Control","[2]; Table 8, single agent alone, 2.5 mM",58%
same,"Keratinocyte proliferation, % Increase Over Control","[2]; Table 8, single agent alone, 5.0 mM",0%
CC(=O)O [Acetate],"Collagen Synthesis, Maximum fold over Control",[1],2.0 fold
same,activation at 2 µM,"[2]; Homo sapiens, NHEK, 72 h, Table 4, Test A, 0.002 mM, read-out: Keratinocyte Proliferation (% increase over control)",22%
same,activation at 20 µM,"[2]; Homo sapiens, NHEK, 72 h, Table 4, Test A, 0.02 mM, read-out: Keratinocyte Proliferation (% increase over control)",31%
same,activation at 200 µM,"[2]; Homo sapiens, NHEK, 72 h, Table 4, Test A, 0.2 mM, read-out: Keratinocyte Proliferation (% increase over control)",43%
same,activation at 2000 µM,"[2]; Homo sapiens, NHEK, 72 h, Table 4, Test A, 2.0 mM, read-out: Keratinocyte Proliferation (% increase over control)",46%
same,activation at 10000 µM,"[2]; Homo sapiens, NHEK, 72 h, Table 4, Test A, 10 mM, read-out: Keratinocyte Proliferation (% increase over control)",63%
same,activation at 200 µM,"[2]; Homo sapiens, NHEK, 72 h, Table 4, Test B, 0.2 mM, read-out: Keratinocyte Proliferation (% increase over control)",12%
same,activation at 2000 µM,"[2]; Homo sapiens, NHEK, 72 h, Table 4, Test B, 2.0 mM, read-out: Keratinocyte Proliferation (% increase over control)",19%
same,activation at 10000 µM,"[2]; Homo sapiens, NHEK, 72 h, Table 4, Test B, 10 mM, read-out: Keratinocyte Proliferation (% increase over control)",0%
same,activation at 20000 µM,"[2]; Homo sapiens, NHEK, 72 h, Table 4, Test B, 20 mM, read-out: Keratinocyte Proliferation (% increase over control)",0%
same,activation at 156 µM,"[2]; Homo sapiens, NHEK, 72 h, Table 4, Test C, 0.156 mM, read-out: Keratinocyte Proliferation (% increase over control)",13%
same,activation at 313 µM,"[2]; Homo sapiens, NHEK, 72 h, Table 4, Test C, 0.313 mM, read-out: Keratinocyte Proliferation (% increase over control)",32%
same,activation at 625 µM,"[2]; Homo sapiens, NHEK, 72 h, Table 4, Test C, 0.625 mM, read-out: Keratinocyte Proliferation (% increase over control)",9%
same,activation at 1250 µM,"[2]; Homo sapiens, NHEK, 72 h, Table 4, Test C, 1.25 mM, read-out: Keratinocyte Proliferation (% increase over control)",2%
same,activation at 2500 µM,"[2]; Homo sapiens, NHEK, 72 h, Table 4, Test C, 2.5 mM, read-out: Keratinocyte Proliferation (% increase over control)",11%
same,activation at 5000 µM,"[2]; Homo sapiens, NHEK, 72 h, Table 4, Test C, 5.0 mM, read-out: Keratinocyte Proliferation (% increase over control)",0%
same,activation at 10000 µM,"[2]; Homo sapiens, NHEK, 72 h, Table 4, Test C, 10 mM, read-out: Keratinocyte Proliferation (% increase over control)",0%
same,activation at 70 µM,"[2]; Homo sapiens, NHEK, 72 h, Table 4, Test D, read-out: Keratinocyte Proliferation (% increase over control)",50%
same,activation at 156 µM,"[2]; Homo sapiens, NHEK, 72 h, Table 4, Test D, 0.156 mM, read-out: Keratinocyte Proliferation (% increase over control)",47%
same,activation at 313 µM,"[2]; Homo sapiens, NHEK, 72 h, Table 4, Test D, 0.313 mM, read-out: Keratinocyte Proliferation (% increase over control)",56%
same,activation at 625 µM,"[2]; Homo sapiens, NHEK, 72 h, Table 4, Test D, 0.625 mM, read-out: Keratinocyte Proliferation (% increase over control)",57%
same,activation at 1250 µM,"[2]; Homo sapiens, NHEK, 72 h, Table 4, Test D, 1.25 mM, read-out: Keratinocyte Proliferation (% increase over control)",42%
same,activation at 2500 µM,"[2]; Homo sapiens, NHEK, 72 h, Table 4, Test D, 2.5 mM, read-out: Keratinocyte Proliferation (% increase over control)",44%
same,activation at 5000 µM,"[2]; Homo sapiens, NHEK, 72 h, Table 4, Test D, 5.0 mM, read-out: Keratinocyte Proliferation (% increase over control)",18%
same,activation at 70 µM,"[2]; Homo sapiens, NHEK, 72 h, Table 4, Test E, read-out: Keratinocyte Proliferation (% increase over control)",0%
same,activation at 156 µM,"[2]; Homo sapiens, NHEK, 72 h, Table 4, Test E, 0.156 mM, read-out: Keratinocyte Proliferation (% increase over control)",6%
same,activation at 313 µM,"[2]; Homo sapiens, NHEK, 72 h, Table 4, Test E, 0.313 mM, read-out: Keratinocyte Proliferation (% increase over control)",24%
same,activation at 313 µM,"[2]; Homo sapiens, NHEK, 72 h, Table 4, Test F, 0.313 mM, read-out: Keratinocyte Proliferation (% increase over control)",5%
same,activation at 625 µM,"[2]; Homo sapiens, NHEK, 72 h, Table 4, Test F, 0.625 mM, read-out: Keratinocyte Proliferation (% increase over control)",34%
same,activation at 1250 µM,"[2]; Homo sapiens, NHEK, 72 h, Table 4, Test F, 1.25 mM, read-out: Keratinocyte Proliferation (% increase over control)",35%
same,activation at 2500 µM,"[2]; Homo sapiens, NHEK, 72 h, Table 4, Test F, 2.5 mM, read-out: Keratinocyte Proliferation (% increase over control)",33%
same,activation at 5000 µM,"[2]; Homo sapiens, NHEK, 72 h, Table 4, Test F, 5.0 mM, read-out: Keratinocyte Proliferation (% increase over control)",7%
same,activation at 10000 µM,"[2]; Homo sapiens, NHEK, 72 h, Table 4, Test F, 10 mM, read-out: Keratinocyte Proliferation (% increase over control)",0%
same,activation at 313 µM,"[2]; Homo sapiens, NHEK, 72 h, Table 4, Test G, 0.313 mM, read-out: Keratinocyte Proliferation (% increase over control)",38%
same,activation at 625 µM,"[2]; Homo sapiens, NHEK, 72 h, Table 4, Test G, 0.625 mM, read-out: Keratinocyte Proliferation (% increase over control)",11%
same,activation at 1250 µM,"[2]; Homo sapiens, NHEK, 72 h, Table 4, Test G, 1.25 mM, read-out: Keratinocyte Proliferation (% increase over control)",24%
same,activation at 2500 µM,"[2]; Homo sapiens, NHEK, 72 h, Table 4, Test G, 2.5 mM, read-out: Keratinocyte Proliferation (% increase over control)",12%
same,activation at 5000 µM,"[2]; Homo sapiens, NHEK, 72 h, Table 4, Test G, 5.0 mM, read-out: Keratinocyte Proliferation (% increase over control)",18%
same,activation at 10000 µM,"[2]; Homo sapiens, NHEK, 72 h, Table 4, Test G, 10 mM, read-out: Keratinocyte Proliferation (% increase over control)",0%
same,"Keratinocyte proliferation, % Increase Over Control","[2]; Table 7, single agent alone, 0.156 mM",41%
same,"Keratinocyte proliferation, % Increase Over Control","[2]; Table 7, single agent alone, 0.313 mM",28%
same,"Keratinocyte proliferation, % Increase Over Control","[2]; Table 7, single agent alone, 0.625 mM",55%
same,"Keratinocyte proliferation, % Increase Over Control","[2]; Table 7, single agent alone, 1.25 mM",55%
same,"Keratinocyte proliferation, % Increase Over Control","[2]; Table 7, single agent alone, 2.5 mM",18%
same,"Keratinocyte proliferation, % Increase Over Control","[2]; Table 7, single agent alone, 5.0 mM",0%

# Source: US5595730A, “Lactate dehydrogenase inhibitors in cosmetic compositions” (priority 1996, dated 1997)
